Experimental findings from patent US8362031B2, “Lonidamine analogues and treatment of polycystic kidney disease” (University of Kansas, priority 2004, dated 2013) are described below.

In this data set the test system is Salmonella Typhimurium TA 100. Briefly: Ames test for mutagenicity (plate assay, colony count). The following applies: 48 hours at 37° C.; for Ames test (+)S9 0.1 mg/pl. / Ames test (+)S9 1 mg/pl. / Ames test (+)S9 10 mg/pl.: (+)S9 mix; for Ames test (−)S9 0.1 mg/pl. / Ames test (−)S9 1 mg/pl. / Ames test (−)S9 10 mg/pl.: (−)S9 mix. Background: The Ames test uses bacterial strains that need an amino acid and regain growth without it when mutated back.

For `O=C(O)/C=C/c1nn(Cc2ccc(Cl)cc2Cl)c2ccc(C(F)(F)F)cc12` [JWS-1-268, 3-[1-(2,4-dichlorobenzyl)-5-trifluoromethyl-1H-indazol-3-yl]-acrylic acid], the “Ames test (+)S9 0.1 mg/pl.” value is “Pass”, the “Ames test (+)S9 1 mg/pl.” value is “Pass”, the “Ames test (+)S9 10 mg/pl.” value is listed as “Pass” and the “Ames test (−)S9 0.1 mg/pl.” value is given as “Pass”. The “Ames test (−)S9 1 mg/pl.” value is recorded as “Pass” and the “Ames test (−)S9 10 mg/pl.” value is given as “Pass”.
As to `O=C(O)c1nn(Cc2ccc(F)cc2Cl)c2cc(Cl)ccc12` [JWS-2-20, 1-(2-chloro-4-fluorobenzyl)-6-chloro-1H-indazole-3-carboxylic acid], the “Ames test (+)S9 0.1 mg/pl.” value is reported as “Pass”, the “Ames test (+)S9 1 mg/pl.” value was “Fail”, the “Ames test (+)S9 10 mg/pl.” value is listed as “Fail” and the “Ames test (−)S9 0.1 mg/pl.” value is “Mar-”. Moreover, the “Ames test (−)S9 1 mg/pl.” value was “Fail” and the “Ames test (−)S9 10 mg/pl.” value is reported as “Fail”.
`O=C(O)c1nn(Cc2ccc(Cl)cc2Cl)c2ccc(C(F)(F)F)cc12` [JWS-1-260, 1-(2,4-dichlorobenzyl)-5-trifluoromethyl-1H-indazole-3-carboxylic acid]: the “Ames test (+)S9 0.1 mg/pl.” value was “Pass”, the “Ames test (+)S9 1 mg/pl.” value is on record as “Pass”, the “Ames test (+)S9 10 mg/pl.” value is recorded as “Pass” and the “Ames test (−)S9 0.1 mg/pl.” value is reported as “Pass”. Besides, the “Ames test (−)S9 1 mg/pl.” value was “Pass” and the “Ames test (−)S9 10 mg/pl.” value is “Pass”.
For the compound `NNC(=O)/C=C/c1nn(Cc2ccc(Cl)cc2Cl)c2cc(C(F)(F)F)ccc12` [RC-MC-205, 3-[1-(2,4-dichlorobenzyl)-6-trifluoromethyl-1H-indazol-3-yl]-acrylic acid hydrazide], the “Ames test (+)S9 0.1 mg/pl.” value is “Pass”, the “Ames test (+)S9 1 mg/pl.” value is on record as “Fail”, the “Ames test (+)S9 10 mg/pl.” value was “Fail” and the “Ames test (−)S9 0.1 mg/pl.” value was “Pass”. Moreover, the “Ames test (−)S9 1 mg/pl.” value is listed as “Fail” and the “Ames test (−)S9 10 mg/pl.” value is recorded as “Mar-”.
For the compound `O=C(O)c1nn(Cc2ccc(F)cc2Cl)c2cc(C(F)(F)F)ccc12` [JWS-2-14, 1-(2-chloro-4-fluorobenzyl)-6-trifluoromethyl-1H-indazole-3-carboxylic acid], the “Ames test (+)S9 0.1 mg/pl.” value is “Pass”, the “Ames test (+)S9 1 mg/pl.” value is “Pass”, the “Ames test (+)S9 10 mg/pl.” value is “Fail” and the “Ames test (−)S9 0.1 mg/pl.” value is given as “Pass”. Further, the “Ames test (−)S9 1 mg/pl.” value is listed as “Fail” and the “Ames test (−)S9 10 mg/pl.” value is “Fail”.
Turning to `O=C(O)/C=C/c1nn(Cc2ccc(F)cc2F)c2cc(C(F)(F)F)ccc12` [JWS-1-294, 3-[1-(2,4-difluorobenzyl)-6-trifluoromethyl-1H-indazol-3-yl]-acrylic acid], the “Ames test (+)S9 0.1 mg/pl.” value is given as “Pass”, the “Ames test (+)S9 1 mg/pl.” value is reported as “Pass”, the “Ames test (+)S9 10 mg/pl.” value is recorded as “Pass” and the “Ames test (−)S9 0.1 mg/pl.” value is on record as “Pass”. For the same compound, the “Ames test (−)S9 1 mg/pl.” value is recorded as “Pass” and the “Ames test (−)S9 10 mg/pl.” value is “Pass”.
For `O=C(O)/C=C/c1nn(Cc2ccc(F)cc2Cl)c2cc(C(F)(F)F)ccc12` [JWS-2-40, 3-[1-(2-chloro, 4-fluorobenzyl)-6-trifluoromethyl-1H-indazol-3-yl]-acrylic acid], the “Ames test (+)S9 0.1 mg/pl.” value is given as “Pass”, the “Ames test (+)S9 1 mg/pl.” value is “Pass”, the “Ames test (+)S9 10 mg/pl.” value was “Pass” and the “Ames test (−)S9 0.1 mg/pl.” value is “Pass”. Further, the “Ames test (−)S9 1 mg/pl.” value is “Pass” and the “Ames test (−)S9 10 mg/pl.” value is given as “Mar-”.
In the case of `COC(=O)c1nn(Cc2ccc(F)cc2Cl)c2cc(Cl)ccc12` [JWS-2-18, 1-(2-chloro-4-fluorobenzyl)-6-chloro-1H-indazole-3-carboxylic acid methyl ester], the “Ames test (+)S9 0.1 mg/pl.” value was “Pass”, the “Ames test (+)S9 1 mg/pl.” value was “Fail”, the “Ames test (+)S9 10 mg/pl.” value is given as “Fail” and the “Ames test (−)S9 0.1 mg/pl.” value was “Pass”. The “Ames test (−)S9 1 mg/pl.” value is reported as “Pass” and the “Ames test (−)S9 10 mg/pl.” value is reported as “Mar-”.
Turning to `NNC(=O)c1nn(Cc2ccc(Cl)cc2Cl)c2ccc(C(F)(F)F)cc12` [JWS-1-258, 1-(2,4-dichlorobenzyl)-5-trifluoromethyl-1H-indazole-3-carboxylic acid hydrazide], the “Ames test (+)S9 0.1 mg/pl.” value is “Pass”, the “Ames test (+)S9 1 mg/pl.” value is reported as “Pass”, the “Ames test (+)S9 10 mg/pl.” value is listed as “Pass” and the “Ames test (−)S9 0.1 mg/pl.” value is “Pass”. The “Ames test (−)S9 1 mg/pl.” value is recorded as “Pass” and the “Ames test (−)S9 10 mg/pl.” value is “Pass”.
As for `NNC(=O)c1nn(Cc2ccc(Cl)cc2Cl)c2cc(C(F)(F)F)cnc12` [JWS-1-232, 1-(2,4-dichlorobenzyl)-6-trifluoromethyl-1H-pyrazolo[4,3-b]pyridine-3-carboxylic acid hydrazide], the “Ames test (+)S9 0.1 mg/pl.” value is “Pass”, the “Ames test (+)S9 1 mg/pl.” value is reported as “Pass”, the “Ames test (+)S9 10 mg/pl.” value is “Pass” and the “Ames test (−)S9 0.1 mg/pl.” value is on record as “Pass”. Besides, the “Ames test (−)S9 1 mg/pl.” value is “Pass” and the “Ames test (−)S9 10 mg/pl.” value is listed as “Pass”.
As for `NNC(=O)c1nn(Cc2ccc(Cl)cc2Cl)c2cc(Cl)ccc12` [DD-MC-II, 6-chloro-1-(2,4-dichlorobenzyl)-1H-indazole-3-carboxylic acid hydrazide], the “Ames test (+)S9 0.1 mg/pl.” value was “Pass”, the “Ames test (+)S9 1 mg/pl.” value was “Pass”, the “Ames test (+)S9 10 mg/pl.” value is recorded as “Pass” and the “Ames test (−)S9 0.1 mg/pl.” value is listed as “Pass”. For the same compound, the “Ames test (−)S9 1 mg/pl.” value is reported as “Pass” and the “Ames test (−)S9 10 mg/pl.” value is listed as “Pass”.
Consider `O=C(O)c1nn(Cc2ccc(F)cc2F)c2ccc(C(F)(F)F)cc12` [JWS-2-1, 1-(2,4-difluorobenzyl)-5-trifluoromethyl-1H-indazole-3-carboxylic acid], for which the “Ames test (+)S9 0.1 mg/pl.” value is given as “Pass”, the “Ames test (+)S9 1 mg/pl.” value was “Pass”, the “Ames test (+)S9 10 mg/pl.” value is given as “Pass” and the “Ames test (−)S9 0.1 mg/pl.” value is on record as “Pass”. The “Ames test (−)S9 1 mg/pl.” value is given as “Mar-” and the “Ames test (−)S9 10 mg/pl.” value is reported as “Fail”.
For the compound `O=C(O)/C=C/c1nn(Cc2ccc(F)cc2F)c2cc(Cl)ccc12` [JWS-1-298, 3-[1-(2,4-difluorobenzyl)-6-chloro-1H-indazol-3-yl]-acrylic acid], the “Ames test (+)S9 0.1 mg/pl.” value is reported as “Pass”, the “Ames test (+)S9 1 mg/pl.” value was “Fail”, the “Ames test (+)S9 10 mg/pl.” value was “Fail” and the “Ames test (−)S9 0.1 mg/pl.” value is recorded as “Pass”. For the same compound, the “Ames test (−)S9 1 mg/pl.” value is “Fail” and the “Ames test (−)S9 10 mg/pl.” value is given as “Fail”.
As to `COC(=O)C=Cc1nn(Cc2ccc(Cl)cc2Cl)c2cc(C(F)(F)F)ccc12` [RC-MC-200], the “Ames test (+)S9 0.1 mg/pl.” value is “Pass”, the “Ames test (+)S9 1 mg/pl.” value is given as “Fail”, the “Ames test (+)S9 10 mg/pl.” value is “Fail” and the “Ames test (−)S9 0.1 mg/pl.” value is “Pass”. Besides, the “Ames test (−)S9 1 mg/pl.” value is on record as “Pass” and the “Ames test (−)S9 10 mg/pl.” value is on record as “Pass”.
For the compound `O=C(O)/C=C/c1nn(Cc2ccc(F)cc2F)c2ccc(C(F)(F)F)cc12` [JWS-2-10, 3-[1-(2,4-difluorobenzyl)-5-trifluoromethyl-1H-indazol-3-yl]-acrylic acid], the “Ames test (+)S9 0.1 mg/pl.” value is reported as “Pass”, the “Ames test (+)S9 1 mg/pl.” value is recorded as “Pass”, the “Ames test (+)S9 10 mg/pl.” value was “Pass” and the “Ames test (−)S9 0.1 mg/pl.” value is “Pass”. In addition, the “Ames test (−)S9 1 mg/pl.” value is recorded as “Pass” and the “Ames test (−)S9 10 mg/pl.” value was “Pass”.
